Experimental findings from US8933018B2, “Boron containing polybasic bacterial efflux pump inhibitors and therapeutic uses thereof” (priority 2011, dated 2015) are described below.

Assay [1] deals with P. aeruginosa, PAM1723, overexpressing the MexAB-OprM efflux pump. The assay is classed as cell-based, Pseudomonas aeruginosa. To be noted: lowest EPI concentration giving antibacterial activity with levofloxacin at 1/8 of its MIC, MHB, 20 h at 35° C. An outline of the steps:
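Checkerboard microdilution in Mueller Hinton Broth, with EPI concentrations varied along one axis. The inoculum was 5 times 10^5 CFU/ml from early-log culture. Plates were incubated 20 h at 35° C, and growth was read at 650 nm and by visual inspection.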

In assay [2] the test system is P. aeruginosa PAM3062, which overexpresses the MexAB-OprM efflux pump. The class given is in vivo, Pseudomonas aeruginosa. The note with it: neutropenic rats, lung, 1.5 hr IV infusion, 24 hours after start of treatment. As to the method: Rats are made neutropenic by administration of a 75 mg/kg dose of cyclophosphamide 2 days prior to infection. Immediately prior to infection, rats are anesthetized with isoflurane. Lung infection is established by intratracheal instillation of ˜1×10^7 CFU/lung. P. aeruginosa PAM3062, which overexpresses the MexAB-OprM efflux pump, is used for infection. All treatments are initiated 4 hours after infection and are administered by 1.5 hr IV infusion twice daily. Rats are sacrificed 24 hours after the start of treatment; lungs are homogenized, serially diluted, and plated to determine colony counts.

Like-named read-outs stand apart in the source and are kept apart here.

Take `NCCN(CCN)C(=O)CC[C@H](N)C(=O)N[C@H](Cc1ccc(C(F)(F)F)cc1)C(=O)Nc1cccc(B(O)O)c1` [Compound 2]: in assay [1], the “MPC8 (Minimum Potentiating Concentration)” value (“MPC8” below) is given as “B (B = MPC8 of 2.5 μg/ml to less than 10 μg/mL.)”. The “Δlog CFU” value in assay [2] (levofloxacin 100 (50 BID) mg/kg + EPI 40 (20 BID) mg/kg 24 hr dose) was −1.74.

`NCCN(CCN)C(=O)CC[C@H](N)C(=O)N[C@H](CCc1ccc(C(F)(F)F)cc1)C(=O)Nc1ccc2c(c1)B(O)OC2` [Compound 6, (S)-2-amino-N5,N5-bis(2-aminoethyl)-N1-((R)-1-(1-hydroxy-1,3-dihydrobenzo[c][1,2]oxaborol-6-ylamino)-1-oxo-4-(4-(trifluoromethyl)phenyl)butan-2-yl)pentanediamide]: the “MPC8” value in assay [1] is “B (B = MPC8 of 2.5 μg/ml to less than 10 μg/mL.)”. The “Δlog CFU” value in assay [2] (levofloxacin 100 (50 BID) mg/kg + EPI 16 (8 BID) mg/kg 24 hr dose) is −2.99.

In the case of `NCCN(CCN)C(=O)CC[C@H](N)C(=O)N[C@H](CCc1ccc(C(F)(F)F)cc1)C(=O)Nc1cccc(B(O)O)c1` [Compound 14, 3-((R)-2-((S)-2-amino-5-(bis(2-aminoethyl)amino)-5-oxopentanamido)-4-(4-(trifluoromethyl)phenyl)butanamido)phenylboronic acid], in assay [1], the “MPC8” value was “B (B = MPC8 of 2.5 μg/ml to less than 10 μg/mL.)”. Also, the “Δlog CFU” value in assay [2] (levofloxacin 100 (50 BID) mg/kg + EPI 20 (10 BID) mg/kg 24 hr dose) is listed as −1.13.

Consider `CC1(C)OB(O)c2cc(NC(=O)[C@@H](Cc3ccc(C(F)(F)F)cc3)NC(=O)[C@@H](N)CCC(=O)N(CCN)CCN)ccc21` [Compound 20, (S)-2-Amino-N5,N5-bis(2-aminoethyl)-N1-((R)-1-(1-hydroxy-3,3-dimethyl-1,3-dihydrobenzo[c][1,2]oxaborol-6-ylamino)-1-oxo-3-(4-(trifluoromethyl)phenyl)propan-2-yl)pentanediamide], for which the “MPC8” value in assay [1] is listed as “A (A = MPC8 of less than 2.5 μg/mL.)”. Also, the “Δlog CFU” value in assay [2] (levofloxacin 100 (50 BID) mg/kg + EPI 10 (5 BID) mg/kg 24 hr dose) is reported as −1.75.

Regarding `CC1(C)OB(O)c2ccc(NC(=O)[C@@H](CCc3ccc(C(F)(F)F)cc3)NC(=O)[C@@H](N)CCC(=O)N(CCN)CCN)cc21` [Compound 94, (S)-2-amino-N^5,N^5-bis(2-aminoethyl)-N^1-((R)-1-(1-hydroxy-3,3-dimethyl-1,3-dihydrobenzo[c][1,2]oxaborol-5-ylamino)-1-oxo-4-(4-(trifluoromethyl)phenyl)butan-2-yl)pentanediamide], the “MPC8” value in assay [1] is “A (A = MPC8 of less than 2.5 μg/mL.)”.

For `CC1(C)OB(O)c2ccc(NC(=O)[C@@H](Cc3ccc(C(F)(F)F)cc3)NC(=O)[C@@H](N)CCC(=O)NC(CN)CN)cc21` [Compound 95, (S)-2-amino-N^5-(1,3-diaminopropan-2-yl)-N^1-((R)-1-(1-hydroxy-3,3-dimethyl-1,3-dihydrobenzo[c][1,2]oxaborol-5-ylamino)-1-oxo-3-(4-(trifluoromethyl)phenyl)propan-2-yl)pentanediamide], in assay [1], the “MPC8” value was “B (B = MPC8 of 2.5 μg/ml to less than 10 μg/mL.)”.

Turning to `CC1(C)OB(O)c2ccc(NC(=O)[C@@H](CCc3ccc(C(F)(F)F)cc3)NC(=O)[C@@H](N)CCC(=O)NC(CN)CN)cc21` [Compound 96, (S)-2-amino-N^5-(1,3-diaminopropan-2-yl)-N^1-((R)-1-(1-hydroxy-3,3-dimethyl-1,3-dihydrobenzo[c][1,2]oxaborol-5-ylamino)-1-oxo-4-(4-(trifluoromethyl)phenyl)butan-2-yl)pentanediamide], in assay [1], the “MPC8” value is listed as “A (A = MPC8 of less than 2.5 μg/mL.)”.

Take `CC1(C)OB(O)c2ccc(NC(=O)[C@@H](COc3ccc(C(F)(F)F)cc3)NC(=O)[C@@H](N)CCC(=O)NC(CN)CN)cc21` [Compound 97, (S)-2-amino-N^5-(1,3-diaminopropan-2-yl)-N^1-((R)-1-(1-hydroxy-3,3-dimethyl-1,3-dihydrobenzo[c][1,2]oxaborol-5-ylamino)-1-oxo-3-(4-(trifluoromethyl)phenoxy)propan-2-yl)pentanediamide]: the “MPC8” value in assay [1] was “B (B = MPC8 of 2.5 μg/ml to less than 10 μg/mL.)”.

As to `CC1(C)OB(O)c2ccc(NC(=O)[C@@H](CSc3ccc(C(F)(F)F)cc3)NC(=O)[C@@H](N)CCC(=O)NC(CN)CN)cc21` [Compound 98, (S)-2-amino-N^5-(1,3-diaminopropan-2-yl)-N^1-((S)-1-(1-hydroxy-3,3-dimethyl-1,3-dihydrobenzo[c][1,2]oxaborol-5-ylamino)-1-oxo-3-(4-(trifluoromethyl)phenylthio)propan-2-yl)pentanediamide], the “MPC8” value in assay [1] is “B (B = MPC8 of 2.5 μg/ml to less than 10 μg/mL.)”.

Regarding `CC1(C)OB(O)c2c(NC(=O)[C@@H](Cc3ccc(C(F)(F)F)cc3)NC(=O)[C@@H](N)CCC(=O)N(CCN)CCN)cccc21` [Compound 101, (S)-2-amino-N^5,N^5-bis(2-aminoethyl)-N^1-((R)-1-(1-hydroxy-3,3-dimethyl-1,3-dihydrobenzo[c][1,2]oxaborol-7-ylamino)-1-oxo-3-(4-(trifluoromethyl)phenyl)propan-2-yl)pentanediamide], the “MPC8” value in assay [1] is “B (B = MPC8 of 2.5 μg/ml to less than 10 μg/mL.)”.

As to `CC1(C)OB(O)c2c(NC(=O)[C@@H](CCc3ccc(C(F)(F)F)cc3)NC(=O)[C@@H](N)CCC(=O)N(CCN)CCN)cccc21` [Compound 102, (S)-2-amino-N^5,N^5-bis(2-aminoethyl)-N^1-((R)-1-(1-hydroxy-3,3-dimethyl-1,3-dihydrobenzo[c][1,2]oxaborol-7-ylamino)-1-oxo-4-(4-(trifluoromethyl)phenyl)butan-2-yl)pentanediamide], the “MPC8” value in assay [1] was “B (B = MPC8 of 2.5 μg/ml to less than 10 μg/mL.)”.

For the molecule `CC1(C)OB(O)c2c1ccc(F)c2NC(=O)[C@@H](CCc1ccc(C(F)(F)F)cc1)NC(=O)[C@@H](N)CCC(=O)N(CCN)CCN` [Compound 103, (S)-2-amino-N^5,N^5-bis(2-aminoethyl)-N^1-((R)-1-(6-fluoro-1-hydroxy-3,3-dimethyl-1,3-dihydrobenzo[c][1,2]oxaborol-7-ylamino)-1-oxo-4-(4-(trifluoromethyl)phenyl)butan-2-yl)pentanediamide], the “MPC8” value in assay [1] is on record as “B (B = MPC8 of 2.5 μg/ml to less than 10 μg/mL.)”.

Take `CC1(C)OB(O)c2cc(NC(=O)[C@@H](Cc3ccc(C(F)(F)F)cc3)NC(=O)[C@@H](N)CCCNC(=O)C(CN)CN)ccc21` [Compound 104, (S)-2-amino-5-(3-amino-2-(aminomethyl)propanamido)-N-((R)-1-(1-hydroxy-3,3-dimethyl-1,3-dihydrobenzo[c][1,2]oxaborol-6-ylamino)-1-oxo-3-(4-(trifluoromethyl)phenyl)propan-2-yl)pentanamide]: in assay [1], the “MPC8” value is given as “B (B = MPC8 of 2.5 μg/ml to less than 10 μg/mL.)”.

On to `CC1(C)OB(O)c2cc(C(=O)NC[C@@H](CCc3ccc(C(F)(F)F)cc3)NC(=O)[C@@H](N)CCC(=O)N(CCN)CCN)ccc21` [Compound 106, (S)-2-amino-N^5,N^5-bis(2-aminoethyl)-N^1-((R)-1-(1-hydroxy-3,3-dimethyl-1,3-dihydrobenzo[c][1,2]oxaborole-6-carboxamido)-4-(4-(trifluoromethyl)phenyl)butan-2-yl)pentanediamide], for which the “MPC8” value in assay [1] is “B (B = MPC8 of 2.5 μg/ml to less than 10 μg/mL.)”.

For the molecule `CC1(C)OB(O)c2cc(NC[C@@H](CCc3ccc(C(F)(F)F)cc3)NC(=O)[C@@H](N)CCC(=O)N(CCN)CCN)ccc21` [Compound 107, (S)-2-amino-N^5,N^5-bis(2-aminoethyl)-N^1-((R)-1-(1-hydroxy-3,3-dimethyl-1,3-dihydrobenzo[c][1,2]oxaborol-6-ylamino)-4-(4-(trifluoromethyl)phenyl)butan-2-yl)pentanediamide], the “MPC8” value in assay [1] is recorded as “A (A = MPC8 of less than 2.5 μg/mL.)”.

As to `CC1(C)OB(O)c2cc(NC[C@@H](Cc3ccc(C(F)(F)F)cc3)NC(=O)[C@@H](N)CCC(=O)N(CCN)CCN)ccc21` [Compound 108, (S)-2-amino-N^5,N^5-bis(2-aminoethyl)-N^1-((R)-1-(1-hydroxy-3,3-dimethyl-1,3-dihydrobenzo[c][1,2]oxaborol-6-ylamino)-3-(4-(trifluoromethyl)phenyl)propan-2-yl)pentanediamide], the “MPC8” value in assay [1] is reported as “A (A = MPC8 of less than 2.5 μg/mL.)”.
